# Literature values, collected in patent publication US20060014801A1, “Prevention and treatment of cognitive impairment using (R)-(-)-5-methyl-1-nicotynoyl-2-pyrazoline (MNP) and analogs” (The Johns Hopkins University, priority 2002, published 2006).
# Test system: aged rats
# Settings: cited from earlier work
smiles,measurement,value
CO/N=C(\C(=O)N[C@@H]1C(=O)N2C(C(=O)O)=C(CSc3nc(=O)c(=O)[nH]n3C)CS[C@H]12)c1csc(N)n1 [ceftriaxone],Cognitive function,improvements of cognitive function
